US11484598B1, “Pleuromulin rhein ester with anti-drug resistant bacteria activity and a method of preparing the same” (XI'AN KANGYUANSHENG BIOMEDICAL TECHNOLOGY CO., LTD., priority 2021, dated 2022)
Converted amounts (≈) assume the structure as drawn.

Key:
Type in all cases: cell-based
[1] = tested on: methicillin-resistant Staphylococcus aureus MRSA 18-575; test: MIC by microbroth dilution method, MRSA 18-575; details: for Minimum bacteriostatic concentration: strain MRSA 18-575, 37° C., 20-22 hours
Description: (§1) The minimal inhibitory concentration (MIC) of the compounds as determined by microbroth dilution method was measured with ceftazidime and vancomycin as positive control.
(§2) The experimental strains included drug-resistant gram-positive bacteria: methicillin-resistant Staphylococcus aureus MRSA 18-575; drug-resistant gram-negative bacteria: multi-drug-resistant Pseudomonas aeruginosa MDR-PA 18-126, 18-756, Carbapenem-resistant Acinetobacter baumannii CR-AB 18-184, 18-560. The experimental strains were all donated by Huashan Hospital Affiliated to Fudan University (Fudan University Antibiotic Research Institute), and used after being identified by conventional methods.
(§3) Preparation of MHB medium: 20.0 g NMB medium was added to 1 L distilled water, boiled until completely dissolved, packed in conical bottles and sterilized at 121° C. for 15 min.
(§4) The experimental strain was cultured to the logarithmic growth phase: under aseptic condition, the experimental strain was inoculated into 100 mL NMB medium and incubated in a constant temperature and humidity incubator at 37° C. for 20-22 hours.
(§5) Preparation of storage solution: weighing the sample to be tested, dissolving it with 1% DMSO solution, preparing a storage solution with a concentration of 2560 μg/mL, weighing a positive reference substance, dissolving it with aseptic distilled water, and configuring a stock solution with a concentration of 2560 μg/mL.
(§6) Preparation of bacterial suspension: under aseptic condition, the experimental strains cultured to logarithmic growth phase were adjusted to 0.5 MCF turbidity standard with MHB medium and diluted according to 1:10, and the bacterial suspension with concentration of 10^6 CFU/mL was prepared for standby.
(§7) Stock solution dilution and inoculation of experimental strains: under aseptic conditions, diluting the stock solution to a solution of 256 μg/mL, taking a sterile 96-well plate, adding 100 μL of MHB medium to each well except for the first and second wells; adding 100 μL of positive control solution to the first well, and adding 100 μL of compound sample solution to the second and third wells; mixing the sample solution in the 3 wells with the medium, and then pipetting 100 μL to the 4th well, and then pipetting 100 μL to the 5th well after mixing, and then diluting to the 9th well in a series of times, and drawing 100 μL from the 9th well and discard, the 10th well is a growth control without drugs; then, adding 100 μL of the above-prepared bacterial suspension to each well to make the final bacterial concentration of each well 5×10^5 CFU/mL; the positive control concentration was 128 μg/mL, the concentrations of the sample solution were 128, 64, 32, 16, 8, 4, 2, 1 μg/mL.
(§8) Incubation: covering the 96-well plate inoculated with the experimental strains, and incubating in a constant temperature and humidity box at 37° C. for 20-22 hours.

[2] = tested on: multi-drug-resistant Pseudomonas aeruginosa MDR-PA 18-756; test: MIC by microbroth dilution method, MDR-PA 18-756; details: strain MDR-PA 18-756; 37° C., 20-22 hours
Description: as §1, §2, §3, §4, §5, §6
as §7, with “μg/mL. […]” for “μg/mL.”

[3] = tested on: multi-drug-resistant Pseudomonas aeruginosa MDR-PA 18-126; test: MIC by microbroth dilution method, MDR-PA 18-126; details: for Minimum bacteriostatic concentration: strain MDR-PA 18-126, 37° C., 20-22 hours
Description: as §1, §2, §3, §4, §5, §6, §7, §8

[4] = tested on: Carbapenem-resistant Acinetobacter baumannii CR-AB 18-184; test: MIC by microbroth dilution method, CR-AB 18-184; details: for Minimum bacteriostatic concentration: strain CR-AB 18-184, 37° C., 20-22 hours
Description: as §1, §2, §3, §4, §5, §6, §7, §8

[5] = tested on: Carbapenem-resistant Acinetobacter baumannii CR-AB 18-560; test: MIC by microbroth dilution method, CR-AB 18-560; details: strain CR-AB 18-560; 37° C., 20-22 hours
Description: as §1, §2, §3, §4, §5, §6
as §7, with “μg/mL. […]” for “μg/mL.”

[6] = tested on: drug-resistant bacteria; test: Antibacterial activity test, summary over all experimental strains; details: text summary of FIG. 1-5 and Table 1
Description: as §1, §2, §3
The experimental strain was cultured to the logarithmic growth phase: under aseptic condition, the experimental strain was inoculated into 100 mL NMB medium and incubated in a constant temperature and humidity incubator at 37° C. for 20-22 hours. […]

SMILES	Minimum bacteriostatic concentration [1] [µg/mL]	Minimum bacteriostatic concentration [2] [µg/mL]	Minimum bacteriostatic concentration [3] [µg/mL]	Minimum bacteriostatic concentration [4] [µg/mL]	Minimum bacteriostatic concentration [5] [µg/mL]	inhibitory effect on drug-resistant bacteria [6]	MIC ([1]; Staphylococcus aureus, MRSA) [µg/mL]	MIC ([3]; Pseudomonas aeruginosa, MDR-PA, strain number not stated (64 matches 18-126)) [µg/mL]	MIC ([4]; Acinetobacter baumannii, CR-AB, strain number not stated (64 matches 18-184)) [µg/mL]
CC(C)(O/N=C(\C(=O)N[C@@H]1C(=O)N2C(C(=O)[O-])=C(C[n+]3ccccc3)CS[C@H]12)c1csc(N)n1)C(=O)O [Ceftazidime]	128	128	128	128	128	–	–	–	–
O=C(O)c1cc(O)c2c(c1)C(=O)c1cccc(O)c1C2=O [Rhein]	>128	>128	>128	>128	>128	no inhibitory effect	–	–	–
C=C[C@]1(C)C[C@@H](OC(=O)CO)[C@]2(C)[C@H](C)CC[C@]3(CCC(=O)[C@H]32)[C@@H](C)[C@@H]1O [Pleuromulin]	>128	>128	>128	>128	>128	no inhibitory effect	–	–	–
C=C[C@@]1(C)C[C@H](OC(=O)COC(=O)c2cc(O)c3c(c2)C(=O)c2cccc(O)c2C3=O)[C@]2(C)C3C(=O)CC[C@]3(CC[C@@H]2C)[C@H](C)[C@H]1O (some centres unmarked) [Pleuromulin rhein ester]	64	>128	64	64	>128	–	64 (≈ 99.3 µM)	64 (≈ 99.3 µM)	64 (≈ 99.3 µM)
CN[C@H](CC(C)C)C(=O)N[C@H]1C(=O)N[C@@H](CC(N)=O)C(=O)N[C@H]2C(=O)N[C@H]3C(=O)N[C@H](C(=O)N[C@H](C(=O)O)c4cc(O)cc(O)c4-c4cc3ccc4O)[C@H](O)c3ccc(c(Cl)c3)Oc3cc2cc(c3O[C@@H]2O[C@H](CO)[C@@H](O)[C@H](O)[C@H]2O[C@H]2C[C@](C)(N)[C@H](O)[C@H](C)O2)Oc2ccc(cc2Cl)[C@H]1O [Vancomycin]	512	–	–	–	–	–	–	–	–
